{"source": "patent US5189025A", "about": "“Methods for the treatment of malignant disease in patients using citrulline containing amino acid solutions” (priority 1990, dated 1993)", "key": {"[1]": {"tested_on": "DFMO-induced thrombocytopenia", "assay": "Influence of ornithine co-administration on DFMO-induced thrombocytopenia in the rat (Table VI)", "settings": "12 days continuous infusion"}, "[2]": {"tested_on": "platelet counts / host toxicity", "assay": "DFMO toxicity, continuous i.v. infusion for 12 days in rats (FIG. 3)", "assay_type": "in vivo", "source_text": "FIG. 3. […] Bars indicate standard deviation.\nIn the above described rat model, a continuous infusion of DFMO was given through a central venous catheter."}, "[3]": {"tested_on": "platelet counts / host toxicity", "parameters": "species or system human (patients with advanced colorectal carcinoma)", "settings": "human, in vivo", "source_text": "FIG. 4. Platelet counts plotted against days of continuous i.v. DFMO infusion in patients with advanced colorectal carcinoma. […] The paired points are connected by a straight line.\nThere was no incidence of nausea, vomiting or diarrhea."}, "MCA sarcoma": {"tested_on": "MCA sarcoma", "assay": "DFMO effect on growth of MCA sarcoma", "assay_type": "in vivo"}, "[4]": {"tested_on": "DFMO-induced thrombocytopenia", "settings": "rat, in vivo"}, "[5]": {"tested_on": "polyamine levels (erythrocyte and tumor)", "assay": "RBC and tumor polyamine levels in tumor-bearing rats infused with amino acid solutions (Example II, Table IV)", "assay_type": "in vivo, male Fisher 344 rats", "settings": "infusion alone, not in combination with essential amino acids; experimental tumor system", "excerpt": "A methylcholanthrene-induced fibrosarcoma (0.17 g) was implanted as a brei into the right flank under anesthesia and the animals were fed a chow diet for 21 days. When the tumors were at least 1.0 cm in width, two-dimensional measurements with calipers were instituted and the equation, length (cm)×(width [cm])^2 ×1/2=grams of tumor tissue, was used to estimate tumor weight. […] The animals were then allowed to recover overnight and continuous infusions were started the next morning. […] Nephramine is a parenteral amino acid solution consisting of eight essential amino acids and histidine. After 6 days of continuous infusion, the animals were sacrificed by aortic bleeding. Liver and tumor were excised and weighed and kept frozen at -70° C. until assays were done. Only viable, nonnecrotic tumor tissue was saved and assayed.\nPreparation of tumor tissue for polyamine assay was done in the following manner. Tumor tissue weighing 0.5 to 1.5 g was cut into small pieces and put into a disposable tube (16×100 mm). Ice-cold 4% sulfosalicylic acid was then added at 2 ml/g wet tissue. This mixture was homogenized in an ice bath for 40 seconds using the Brinkman Polytron homogenizer (P10ST generator set at 8.5). The suspension was centrifuged at 100,000 g for 30 minutes and the resulting clear supernatant was analyzed for polyamines on a Durrum D-500 amino acid analyzer."}, "RBC putrescine levels": {"tested_on": "RBC putrescine levels", "assay": "RBC putrescine in tumor-bearing and non tumor-bearing rats infused with feeding solutions (Table V)", "settings": "vs chow or essential amino acids only", "description": "Another experiment which utilized formulations containing amino acid precursors of RBC polyamines, compared the response of tumor-bearing rats (TB) to non tumor-bearing rats (NTB). The study was performed basically in the manner described above with the following indicated differences. […] Chow rats (C) were fed chow with no i.v. infusion.\nWhere N is the number of rats included in the study, PUT is RBC levels (nm/g/ml, means±SD) of putrescine determined by HPLC."}}, "note": "Entries after “also recorded” stand apart in the source; their conditions may differ. Where two headings read alike, the source gives them in different places.", "data": [{"smiles": "NCCC[C@H](N)C(=O)O", "note": "[ornithine]", "values": [{"measurement": "platelet suppression / change in platelet count", "setting": "[1]", "value": "blocked platelet suppression; also recorded: significant reversal in the platelet suppression"}]}, {"smiles": "NCCCC(N)(C(=O)O)C(F)F", "note": "(centres unmarked) [DFMO, Difluoromethylornithine]", "values": [{"measurement": "decrease in tumor putrescine levels", "setting": "tumor putrescine levels; DFMO infusion, rat-tumor model", "value": 90, "unit": "%"}, {"measurement": "peripheral platelet counts", "setting": "tumor putrescine levels; rat, in vivo", "value": "without suppressing peripheral platelet counts"}, {"measurement": "clinical toxicity", "setting": "[2]; 12 day study", "value": "no significant clinical toxicity"}, {"measurement": "White cell count and hematocrit changes", "setting": "[2]; rat, in vivo", "value": "not significantly altered"}, {"measurement": "White cell count", "setting": "[3]", "value": "not affected by either dose"}, {"measurement": "decreased hearing acuity (patients)", "setting": "[3]", "value": "two patients"}, {"measurement": "hematocrit", "setting": "[3]", "value": "Significant suppression of the hematocrit"}, {"measurement": "nausea, vomiting or diarrhea", "setting": "[3]", "value": "no incidence"}, {"measurement": "platelet suppression", "setting": "[3]", "value": "platelet suppression is the major limiting host toxicity"}, {"measurement": "platelet suppression, 8 g compared with 6 g dose", "setting": "[3]", "value": "significantly greater platelet suppression at the 8 g dose"}, {"measurement": "tumor regression", "setting": "MCA sarcoma; MCA sarcoma", "value": "does not produce tumor regression"}, {"measurement": "growth rate of an MCA sarcoma", "setting": "MCA sarcoma; in vivo", "value": "reduces the growth rate"}, {"measurement": "Platelets", "setting": "[4]", "value": "409 ± 127 × 10^3 /cu. mm"}, {"measurement": "platelet suppression / change in platelet count", "setting": "[4]", "value": "significant decrease in platelet count as compared with the saline treatment"}]}, {"smiles": "N=C(N)NCCC[C@H](N)C(=O)O", "note": "[arginine]", "values": [{"measurement": "blood polyamine levels", "setting": "[5]", "value": "has not produced elevated blood polyamine levels"}, {"measurement": "increase in RBC putrescine levels in NTB rats", "setting": "RBC putrescine levels", "value": "significantly greater (p<0.05)"}]}]}
